IC50 and melting point data for 17 compounds are collected here from patent publication US8808702B2, “Sulfide, sulfoxide and sulfone chalcone analogues, derivatives thereof and therapeutic uses thereof” (Temple University-of the Commonwealth System of Higher …, priority 2006, dated 2014).

The subject of data set [1] is K562 (chronic myelogenous leukaemia). Nature of the data set: Effect of compounds on tumor cell lines (assay of Latham et al.), K562. The data set is classed as cell-based. The conditions noted are these: Homo sapiens, Table 4, K562 cells, examined 96 hours after treatment, 1 μM to 100 μM in DMSO. In short, it runs like this:
(§1)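 After 96 h of exposure to compound (1–100 μM in DMSO; one compound at 0.1–100 μM), effects were scored by inverted-microscope inspection, with trypan blue viable counts by hemacytometer when required. Cells were seeded at 2.5×10^4 per well and dosed 24 h after plating.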

Another data set has as its system DU145 (prostate cancer). As to the kind of experiment: Effect of compounds on tumor cell lines (assay of Latham et al.), DU145. The data set is classed as cell-based. Particulars: Homo sapiens, DU-145; Table 4; DU145 cells, examined 96 hours after treatment, 1 μM to 100 μM in DMSO; read-out: DU 145 potency (IC50). A digest of the protocol:
as §1

[2] abbreviates: read-out: K 562 potency (IC50), given as number.

Read-outs that look alike come from different tables or passages of the source.

By IC50 is commonly meant the concentration needed to halve the response being measured. What is called melting point is the temperature of the solid-liquid transition. Take `O=C(/C(=C\c1ccc(I)cc1)S(=O)(=O)Cc1ccc(I)cc1)c1ccc(Br)cc1` [Example 420, (E)-1-(4-bromophenyl)-2-(4-iodobenzylsulfonyl)-3-(4-iodophenyl)-prop-2-en-1-one]: the melting point lay in the range of 160 to 162 °C. Also, the 50% inhibitory concentration (IC50) in data set [1] (setting [2]) was > 50 µM. Moreover, the half-inhibitory concentration (IC50) in the data set with DU145 (prostate cancer) was in the range of 25 to 50 µM.
On the same counts, the results for `O=C(/C(=C\c1ccc(I)cc1)S(=O)(=O)Cc1ccc(I)cc1)c1ccc(I)cc1` [Example 421, (E)-1-(4-iodophenyl)-2-(4-iodobenzylsulfonyl)-3-(4-iodophenyl)-prop-2-en-1-one] are 175 to 177 °C, > 50 µM and 25 to 50 µM.
In turn, `Cc1ccc(CS(=O)(=O)/C(=C/c2cccc(Cl)c2Cl)C(=O)c2ccc(Cl)cc2)cc1` [Example 423] yielded a melting point of 162 to 165 °C. For the same compound, in data set [1] (read-out: K 562 potency (IC50)), the IC50 lay in the range of 1 to 10 µM. For the same compound, the concentration for half-maximal inhibition (IC50) in the data set on DU145 (prostate cancer) fell in the range of 1 to 10 µM.
`Cc1ccc(CS(=O)(=O)/C(=C/c2c(O)cc(O)cc2O)C(=O)c2ccc(Cl)cc2)cc1` [Example 424]: the melting point was in the range of 167 to 180 °C. In addition, the 50% inhibitory concentration (IC50) in data set [1] (read-out: K 562 potency (IC50)) was > 100 µM. The IC50 in the data set with DU145 (prostate cancer) is > 100 µM.
For the compound `Cc1ccc(CS(=O)(=O)/C(=C/c2cc(C)ccc2C)C(=O)c2ccc(Cl)cc2)cc1` [Example 425], the melting point was 176 to 182 °C. In data set [1] (read-out: K 562 potency (IC50)), the IC50 is 1 to 10 µM. Besides, the half-inhibitory concentration (IC50) with DU145 (prostate cancer) lay in the range of 1 to 10 µM.
As for `Cc1ccc(CS(=O)(=O)/C(=C/c2ccccc2OCc2ccccc2)C(=O)c2ccc(Cl)cc2)cc1` [Example 426], the melting point is 112 to 129 °C. Further, the IC50 in data set [1] (read-out: K 562 potency (IC50)) lay in the range of 1 to 10 µM. Besides, in the data set on DU145 (prostate cancer), the half-inhibitory concentration (IC50) lay within 1 to 10 µM.
Consider `Cc1ccc(CS(=O)(=O)/C(=C/c2cc(C)cc(C)c2)C(=O)c2ccc(Cl)cc2)cc1` [Example 429], for which the melting point was in the range of 169 to 178 °C. Further, in data set [1] (read-out: K 562 potency (IC50)), the concentration for half-maximal inhibition (IC50) is 10 to 25 µM. Besides, the IC50 in the data set with DU145 (prostate cancer) lay in the range of 10 to 25 µM.
`Cc1ccc(CS(=O)(=O)/C(=C/c2c[nH]c3ccccc23)C(=O)c2ccc(Cl)cc2)cc1` [Example 430]: the melting point fell in the range of 160 to 165 °C. In addition, the IC50 in data set [1] (read-out: K 562 potency (IC50)) was > 100 µM. Besides, the IC50 with DU145 (prostate cancer) lay in the range of 25 to 50 µM.
On the same counts, the results for `Cc1ccc(CS(=O)(=O)/C(=C/c2sccc2C)C(=O)c2ccc(Cl)cc2)cc1` [Example 431] are 98 to 105 °C, 25 to 50 µM and 25 to 50 µM.
The corresponding values for `Cc1ccc(CS(=O)(=O)/C(=C/c2ccc(N(C)C)cc2)C(=O)c2ccc(Cl)cc2)cc1` [Example 432] are 150 to 154 °C, 50 to 100 µM and 50 to 100 µM.
In the case of `Cc1ccc(CS(=O)(=O)/C(=C/c2ccc(Br)cc2)C(=O)c2ccc(Cl)cc2)cc1` [Example 433], the melting point lay in the range of 160 to 165 °C. Further, the IC50 in data set [1] (read-out: K 562 potency (IC50)) is 10 to 25 µM. The IC50 in the data set on DU145 (prostate cancer) lay within 25 to 50 µM.
The corresponding values for `Cc1ccc(CS(=O)(=O)/C(=C/c2ccc(Cl)cc2)C(=O)c2ccc(Cl)cc2)cc1` [Example 434] are 128 to 133 °C, 25 to 50 µM and 25 to 50 µM.
Regarding `CCOc1ccc(/C=C(\C(=O)c2ccc(Cl)cc2)S(=O)(=O)Cc2ccc(C)cc2)cc1OC` [Example 435], the melting point was in the range of 65 to 72 °C. Further, the IC50 in data set [1] (read-out: K 562 potency (IC50)) was in the range of 10 to 25 µM. For the same compound, the half-inhibitory concentration (IC50) in the data set with DU145 (prostate cancer) was in the range of 10 to 25 µM.
As to `CSc1ccc(/C=C(\C(=O)c2ccc(Cl)cc2)S(=O)(=O)Cc2ccc(C)cc2)cc1` [Example 437], the melting point lay within 140 to 152 °C. Moreover, the IC50 in data set [1] (read-out: K 562 potency (IC50)) was in the range of 25 to 50 µM. Also, the 50% inhibitory concentration (IC50) in the data set with DU145 (prostate cancer) fell in the range of 10 to 25 µM.
For `Cc1ccc(CS(=O)(=O)/C(=C/c2ccc(S(C)(=O)=O)cc2)C(=O)c2ccc(Br)cc2)cc1` [Example 438], the melting point was 110 to 112 °C. Also, the IC50 in data set [1] (read-out: K 562 potency (IC50)) lay within 1 to 10 µM. Further, in the data set on DU145 (prostate cancer), the 50% inhibitory concentration (IC50) was in the range of 10 to 25 µM.
`Cc1ccc(CS(=O)(=O)/C(=C/c2c[nH]c3ccc(Br)cc23)C(=O)c2ccc(Cl)cc2)cc1` [Example 439] came in with a melting point of 186 to 195 °C. Besides, the half-maximal inhibitory concentration (IC50) in data set [1] (read-out: K 562 potency (IC50)) fell in the range of 10 to 25 µM. The IC50 with DU145 (prostate cancer) was in the range of 10 to 25 µM.
Consider `Cc1ccc(CS(=O)(=O)/C(=C/c2ccc(C)s2)C(=O)c2ccc(Cl)cc2)cc1` [Example 440], for which the melting point lay in the range of 171 to 178 °C. Further, the concentration for half-maximal inhibition (IC50) in data set [1] (read-out: K 562 potency (IC50)) lay in the range of 25 to 50 µM. Besides, the half-maximal inhibitory concentration (IC50) in the data set on DU145 (prostate cancer) lay within 25 to 50 µM.
